From US20030077573A1, “Methods of identifying compounds useful in the inhibition of neurodegenerative disease” (priority 1999, published 2003) come the findings set out here.

Bridge positions count the residues as written; N and C are the ends. Ends that are not written are not given here.

Assay [1] has as its system murine microglial cell line (N9). Kind of assay: LTB4 release from N9 microglial cells. To be noted: 18 hours; for effect on Aβ-induced microglial LTB4 release: Aβ1-40 500 nM + drug (dipyridamole 10 μM). In kind it is cell-based. The protocol:
The murine microglial cell line (N9) is kindly provided by Dr. Paola Ricciardi-Castagnoli (Cellular Pharmacology Center, Milan, Italy) and cells are grown in RPMI 1640 medium supplemented with 5% fetal calf serum, 2 mM glutamine, 100 U/mL penicillin, 0.1 μg/mL streptomycin and 0.05 mM 2-mercaptoethanol. Microglial cells are seeded at 50,000 cells/well in 6-well plates (Falcon, France) and treated with Aβ1-40 (500 nM), dipyridamole (10 μM) or untreated (control) and incubated for 18 hours. Cell supernatants are then collected and immediately frozen at −80° C.
Cell supernatants (50 μL) are used in the LTB4 assay, and each sample is assayed in duplicate. Manipulations are performed in accordance with the manufacturer's instruction. A spectramax 250 spectrophotometer (Molecular Devices, San Diego, USA) is used to measure absorbance at 405 nm and a standard curve is plotted using a 4-parameter model. Cell extracts for protein determination are obtained by lysing microglial cells in 110 μL of ice cold lysis buffer ([…] pH 7.5, 150 mM NaCl, 1 mM EDTA, 1 mM EGTA, 1% Triton X-100, 2.5 mM sodium pyrophosphate, 1 mM β-Glycerophosphate, 1 mM Na3VO4, 1 μg/ml leupeptin and 1 mM phenylmethylsulfonyl fluoride). Protein concentrations are determined for each sample using the Biorad reagent according to the manufacturer's instruction. LTB4 data are thus expressed as pg LTB4 /mg cellular protein.

The test system of assay [2] is N9 murine microglial cell line. Put plainly: LPS-induced TNF-α release from N9 microglia. In kind it is cell-based.
For assay [3], the system named is rat aortic rings. Put plainly: vasoconstriction assay, ET-1-induced constriction of rat aortic rings. To be noted: ET-1 1-5 nM, ODQ 10 μM, YC-1 5 μM, L-NAME 100 μM, dipyridamole 10 μM; for effect on Aβ-enhancement of ET-1-induced vasoconstriction (agent + Aβ): 1 μM Aβ1-40, ANOVA interaction; for effect on ET-1-induced vasoconstriction (agent alone): Aβ1-40 1 μM. The procedure: (§1) Vasoactivity is measured in rat aortic rings using the system previously described, for example by Crawford, F., et al., The vasoactivity of Aβ peptides, Ann. N. Y. Acad. Sci. 826:3546, (1997); Crawford, F., et al., Characteristics of the in vitro vasoactivity of beta-amyloid peptides, Exp. Neurol. 150:159-168 (1998); Paris, D., et al., Isoform-specific vasoconstriction induced by Apolipoprotein E and modulation of this effect by Alzheimer's β-amyloid peptide. Neurosci. Lett. 256:73-76, (1998); Paris, D., et al., Role of peroxynitrite in the vasoactive and cytotoxic properties of Alzheimer's β-amyloid1-40 peptide, Exp. Neurol. 152:116-122 (1998); and Thomas, T. N., et al., Vasoactive effects and free radical generation by β-amyloid peptides. U.S. Pat. No. 6,011,019. Jan. 4, 2000. Normal male Sprague-Dawley rats (7-8 months old) are sacrificed, and freshly dissected rat aortae are segmented into 3 mm rings and suspended in Kreb's buffer on hooks. These hooks are connected to an isometric transducer linked to a MacLab system. Aortic rings are equilibrated in the tissue bath system for two hours with the Kreb's buffer changed every 30 min.
For the vasoconstriction assay, the first group of aortic rings are pre-treated with 10 μM ODQ 2 minutes prior to the addition of 1 μM of Aβ1-40. After 5 minutes of incubation with Aβ, the vessels are then subjected to a dose range of ET-1 (from 1 nM to 5 nM). The second set of vessels are treated with Aβ prior to the addition of ET-1. A third set received ODQ treatment followed by ET-1, and the fourth group (control) only received ET-1 treatment. A similar protocol is applied with dipyridamole (10 μM), and YC-1 (5 μM). In all cases the percentage contraction as compared to baseline is determined for each dose of ET-1 used. The means and standard errors (SEs) of all such values are calculated.

For assay [4], the system named is rat aortic rings. Put plainly: vasorelaxation assay, phenylephrine-constricted rat aortic rings. To be noted: for effect on the relaxation induced by SNP: vessels constricted with 3.5 nM PE, SNP 0.1, 1, 2 μM, Aβ1-40 1 μM or ODQ 10 μM. The protocol: as §1
For the vasorelaxation assay, constricted aortic rings are pre-treated for 5 minutes with 1 μM of Aβ with a single dose of phenylephrine (3.5×10^−9 M) along with untreated controls. After waiting for stabilization of vasotension, aortic segments are subjected to a range of SNP doses. Aortic rings pre-constricted with a single dose of phenylephrine (3.5×10^−9 M) are treated with 10 μM ODQ 5 minutes prior to the addition of several doses of SNP. The effect of 10 μM of dipyridamole is also investigated on vessels pre-constricted with 3.5×10^−9 M of phenylephrine. Data are standardized such that the maximum PE-induced constriction is fixed at 100%.

Assay [5] concerns rat aortic rings. Kind of assay: quantification of cGMP and cAMP levels in rat aortae (EIA). The procedure: Aortic rings are equilibrated in Kreb's buffer for 2 hours and then constricted with a serial dose range of ET-1 (from 1 nM to 5 nM) in the presence or absence of 1 μM of Aβ. Immediately following maximum vasoconstriction (or, in the case of control rings, after 2 hours of equilibration in Kreb's buffer), aortae are frozen in liquid nitrogen. Vessels are then homogenized in 10% trichloracetic acid (TCA) diluted in PBS (at 4° C.) and centrifuged to pellet TCA precipitated proteins. Supernatants are collected and TCA is then removed from samples by three extractions with diethyl ether saturated in deionized water. Residual ether is removed from the sample by heating samples to 70° C. for 10 minutes. Both cGMP and cAMP levels are quantified using competitive binding EIAs (Alexis Biochemicals, San Diego, Calif.) according to the manufacturer's instruction.

Setting [6] is: ET-1 1-5 nM vs untreated control.

Take `Nc1nc2c(nc(Br)n2[C@@H]2O[C@@H]3COP(=O)(O)O[C@H]3[C@H]2O)c(=O)[nH]1` [8-Br cGMP, 8-bromo cGMP]: in assay [1], the “effect on Aβ-induced microglial LTB4 release” value is “completely block Aβ-induced microglial LTB4 release”. Further, the “effect on LPS-induced microglial TNF-α release” value in assay [2] (8-Br cGMP 1 μM, data not shown) is on record as “partially inhibit LPS-induced microglial TNF-α release”; in assay [2] (8-Br cGMP 5 μM, LPS 2.5 ng/mL, 18 h) it was “completely inhibit LPS-induced microglial TNF-α release”.

For `COC(=O)[C@@H](N)CCCNC(=N)N[N+](=O)[O-]` [L-NAME, N-ω-nitro-L-arginine methyl ester], in the assay with rat aortic rings [3], the “effect on Aβ-enhancement of ET-1-induced vasoconstriction (agent + Aβ)” value (shortened to “effect on Aβ-enhancement”) is given as “no statistical interaction is observed” and the “effect on ET-1-induced vasoconstriction (agent alone)” value (from here on “effect … (agent alone)”) is given as “does not significantly increase ET-1-induced vasoconstriction”.

In the case of `O=c1onc2cnc3ccccc3n12` [ODQ, 1H-[1,2,4]oxadiazolo[4,3,-α]quinoxalin-1-one], in the assay with rat aortic rings [3], the “effect on Aβ-enhancement” value is “constriction which is only additive” and the “effect … (agent alone)” value is given as “Neither ODQ or Aβ alone are able to potentiate vasoconstriction induced by ET-1”. In the assay with rat aortic rings [4], the “effect on the relaxation induced by SNP” value is on record as “blocks the relaxation induced by this NO donor”.

Take `OCCN(CCO)c1nc(N2CCCCC2)c2nc(N(CCO)CCO)nc(N3CCCCC3)c2n1` [dipyridamole]: in the assay on rat aortic rings [3], the “effect on Aβ-enhancement” value is on record as “blocks Aβ-induced vasoconstriction in a statistically interactive manner” and the “effect … (agent alone)” value is “opposes ET-1-induced vasoconstriction in an ET-1 dose-dependent manner”. In assay [1], the “effect on Aβ-induced microglial LTB4 release” value is “completely prevents the increased LTB4 production induced by Aβ”. In addition, in the assay with rat aortic rings [4] (10 μM dipyridamole, 3.5 nM PE), the “relaxation of aortic rings constricted with phenylephrine” value is on record as “induced potent relaxation”. For the same compound, in the assay on rat aortic rings [4] (10 μM dipyridamole, Aβ-treated vs control vessels, PE-constricted), the “effect on Aβ opposition to relaxation” value is recorded as “blocks the opposition to relaxation normally induced by Aβ”. Also, the “relaxant effect on quiescent rings” value in the assay on rat aortic rings [4] (10 μM dipyridamole, data not shown) is given as “no significant relaxant effect”. Moreover, the “effect on LPS-induced microglial activation (TNF-α release)” value in assay [2] (LPS 2.5 ng/mL, 18 h, dipyridamole 10 μM, SNP 10 μM, YC-1 10 μM) is on record as “markedly reduce microglial activation induced by LPS”.

On to “Aβ1-40: freshly solubilized β-amyloid peptide Aβ1-40, supplied by QCB”, for which, in the assay with rat aortic rings [5] (1 μM Aβ + ET-1 vs ET-1 alone), the “cAMP levels in rat aortic rings” value was “not able to modulate cAMP levels” and the “cGMP levels in rat aortic rings” value is given as “significantly lower compared to ET-1 treatment alone”. The “microglial LTB4 release” value in assay [1] (Aβ1-40 500 nM, vs untreated cells) was “significant LTB4 release”. In the assay with rat aortic rings [4], the “effect on the relaxation induced by SNP” value was “relaxation induced by SNP, an NO-donor, is reduced”.

Turning to “ET-1: Endothelin-1, one of the most potent cerebrovascular vasoconstrictors (CSCSSLMDKECVYFCHLDIIW; disulfide 1-15, 3-11; ends not checked; UniProt P05305 53-73, looked up)”, in the assay on rat aortic rings [5] (setting [6]), the “cAMP levels in rat aortic rings” value is “increase” and the “cGMP levels in rat aortic rings” value was “increase”.
